BigSolDB 2.1

CC(=O)N[C@@H](CCC(N)=O)C(=O)O
solubility (mole fraction)
Details | 283.15 K | 288.15 K | 293.15 K | 298.15 K | 303.15 K | 308.15 K | 313.15 K | 318.15 K | 323.15 K
in 2-butanone | 0.000381 | 0.000395 | 0.000425 | 0.000451 | 0.000479 | 0.000516 | 0.000564 | 0.000606 | 0.000658
in acetone | 0.00016 | 0.000192 | 0.000232 | 0.000275 | 0.000312 | 0.000342 | 0.000389 | 0.000422 | 0.000475
in acetonitrile | 0.000116 | 0.000128 | 0.000139 | 0.000152 | 0.000165 | 0.000179 | 0.000194 | 0.000205 | 0.000217
in ethanol | 0.000347 | 0.000389 | 0.000461 | 0.000543 | 0.000618 | 0.000685 | 0.000768 | 0.000845 | 0.000935
in ethyl acetate | 0.000101 | 0.000136 | 0.000186 | 0.000222 | 0.000271 | 0.000323 | 0.000362 | 0.000402 | 0.000431
in isobutanol | 0.000288 | 0.000309 | 0.000354 | 0.000415 | 0.000464 | 0.000527 | 0.000587 | 0.000635 | 0.000707
in methanol | 0.000974 | 0.00112 | 0.00132 | 0.00149 | 0.00176 | 0.00206 | 0.00243 | 0.00281 | 0.00318
in methyl acetate | 0.000141 | 0.000167 | 0.000201 | 0.000245 | 0.000277 | 0.000315 | 0.000351 | 0.000401 | 0.000445
in n-butanol | 8.9e-05 | 0.000102 | 0.000144 | 0.000193 | 0.000246 | 0.000314 | 0.000372 | 0.000439 | 0.000516
in n-propanol | 0.000371 | 0.000405 | 0.000434 | 0.000471 | 0.000498 | 0.00053 | 0.000564 | 0.000594 | 0.000637
in sec-butanol | 0.000347 | 0.000395 | 0.000452 | 0.000501 | 0.000554 | 0.000605 | 0.000661 | 0.000705 | 0.000757
in water | 0.00214 | 0.00233 | 0.00265 | 0.00297 | 0.00358 | 0.0043 | 0.00492 | 0.00587 | 0.00767
